SMILES strings stand for the structures. Read-outs that look alike come from different tables or passages of the source. Where only a bound is given, the exact number is not on record here.

19 molecules from patent US20240132463A1, “SUBSTITUTED N-(2-(2,6-DIOXOPIPERIDIN-3-YL)-1,3-DIOXOISOINDOLIN-5-YL)ARYLSULFONAMIDE ANALOGS AS MODULATORS OF CEREBLON PROTEIN” (ST. JUDE CHILDREN'S RESEARCH HOSPITAL, INC., priority 2020, published 2024) can be followed below.

Data set [1] has as its target 6×His-CRBN-DDB1 protein (Homo sapiens (Human), UniProt Q96SW2). Description: CRBN fluorescence polarization assay. The format is binding. The procedure:
6×His-CRBN-DDB1 protein (200 nM) and Cy5-O-Len probe (30 nM) were combined in 20 mM HEPES pH 7, 150 mM NaCl, 0.005% Tween-20 assay buffer. […] The plates were incubated in the dark for 1 hour at room temperature and then read on an Envision plate reader (PerkinElmer, Massachusetts, USA).
(In general: In fluorescence polarisation assays a small probe gives low polarisation when free and higher when bound to something large.)

For data set [2], the system named is MDCKII-MDR1 cells. Nature of the data set: MDCKII-MDR1 permeability assay. The format is in vitro ADME. The settings on record: permeability in MDCK-MDR1 cells. The procedure: High throughput […]1 permeability was performed in the Transwell® 0.4 μm polycarbonate membrane 96-well system with modified methods (Refs. 38-39). […]1 cells were maintained at 37° C. in a humidified incubator with an atmosphere of 5% CO2. The cells were cultured in 75 cm^2 flasks with Dulbecco's Modified Eagle's Medium (DMEM) containing 10% fetal bovine serum (FBS), 1% non-essential amino acids (NEAA), 100 units/ml of penicillin, and 100 μg/ml of streptomycin. The […]1 cells were seeded onto inserts at a density of 2×10^4 and 1×10^4 cells/insert separately. The medium in the wells was exchanged each other day, and the trans epithelial electrical resistance (TEER) value was measured using an epithelial volt-ohm meter (Millipore, Billerica, Massachusetts). […] For transport experiments, each cultured monolayer on the 96-well plate was washed twice with a transport buffer (HBSS/25 mM HEPES, pH 7.4). The permeability assay was initiated by the addition of each compound solution (10 μmol/L) into inserts (apical side, A) or receivers (basolateral side, B). The MDCKII-MDR1 cell monolayers were incubated for 1 hour at 37° C. Fractions were collected from receivers (if apical to basal permeability) or inserts (if basal to apical permeability), and concentrations were assessed by UPLC/MS (Waters; Milford, MA). All compounds were tested in triplicates. The A→B (or B→A) apparent permeability coefficients (Papp) of each compound were calculated using the equation, Papp=dQ/dt×1/AC0, where dQ/dt equals the flux of a drug across the monolayer, A equals the total insert well surface area, and C0 is the initial concentration of substrate in the donor compartment. The efflux ratio was determined by dividing the Papp in the B-A direction by the Papp in the A-B direction.

Data set [3] addresses GSPT1 HiBiT tag protein (Homo sapiens (Human), UniProt P15170+Q96SW2). Description: hGSPT1 HiBiT assay. The format is cell-based. Here is the method: hGSPT1 HiBiT cell line. HEK293_hGSPT1_HiBiT tagged cells were generated using CRISPR-Cas12a technology. Briefly, ˜400,000 HEK293 cells were transiently co-transfecting with precomplexed ribonuclear proteins (RNPs) consisting of […] of crRNA (IDT), 62 pmol of Cas12a protein (IDT), 3 ug of ssODN donor (IDT; AltR™ modifications), 78 pmol of electroporation enhancer (IDT), and 200 ng of pMaxGFP (Lonza). The transfection was performed via nucleofection (Lonza, 4D-Nucleofector™ X-unit) using solution P3 and program CM-130 in a small (20 ul) cuvette according to the manufacturer's recommended protocol. Five days post-nucleofection, cells were single cell sorted for GFP+(transfected) cells by FACs in 96-well plates and clonally selected. Clones were screened and verified for the desired modification via targeted deep sequencing using gene specific primers with partial Illumina adapter overhangs as previously described.^58 In brief, clonal cell pellets were harvested, lysed and used to generate gene specific amplicons with partial Illumina adapters in PCR #1. Amplicons were indexed in PCR #2 and pooled with other targeted amplicons for other loci to create sequence diversity. Additionally, 10% PhiX Sequencing Control V3 (Illumina) was added to the pooled amplicon library prior to running the sample on an Miseq Sequencer System (Illumina) to generate paired 2×250 bp reads. […] Editing construct sequences and screening primers are listed below in Table 4.
hGSPT1 HiBiT assay. […] After 4 hrs incubation, the level of GSPT1 HiBiT tag protein was evaluated using Nano-Glo® HiBiT Lytic Detection System (Promega) according to the manufacturer's instruction.
(HiBiT is a short tag that completes a luciferase, so light tracks the accessible tagged protein.)

Data set [4] concerns MV4-11 cells. Description: MV-4-11 cell viability assay. The format is cell-based, human. Particulars: 72 hours, Cell Titer Glo. In general terms: ATP-based viability assays read luminescence as a measure of living cells.
Method: MV-4-11 cell line was purchased from the American Type Culture Collection (ATCC, Manassas, VA). The cells were cultured according to recommendations in IMDM cell culture media (ATCC). Exponentially growing MV-4-11 cells were plated at 1,000 cells per well in Corning 8804BC white 384-well assay plates and incubated overnight at 37° C. in a humidified 5% CO2 incubator. Compounds were transferred to the assay plate from a dose-response plate using a Pintool on a Biomek FXP Laboratory Automation Workstation (Beckman Coulter). Cytotoxicity was determined following 72 hours of incubation using Promega Cell Titer Glo reagent according to the manufacturer's recommendation. Luminescence was measured on an Envision plate reader (Perkin-Elmer).
Compounds were screened in human cancer cell lines and each cell line was cultured in the complete medium recommended by the vendor and seeded in Corning 8804BC white 384-well assay plates at density of 1,000, 1,000, 1,000, 1,500 and 7,500 cells per well, for MV4-11, HD-MB03, MB004, MB002 and MHH-CALL4 cells respectively. After overnight incubation at 37° C. in a humidified 5% CO2 incubator, cells were treated with compounds in dose-response format using a Pintool on a Biomek FXP Laboratory Automation Workstation (Beckman Coulter). […] After 72 h incubation, cell proliferation was assessed using Cell Titer-Glo (CTG) luminescent cell viability assay (Promega) according to the manufacturer's instruction. Luminescence signal was measured using an Envision plate reader (Perkin-Elmer).
Data set [5] in a line: Aqueous solubility assay. The format is physicochemical. The settings on record: aqueous solubility at pH = 7.4, triplicate. Here is the method: Solubility assays were carried out on a Biomek FX lab automation workstation (Beckman Coulter, Inc., Fullerton, CA) using μSOL Evolution software (pION Inc., Woburn, MA). 10 μL of 10 mM compound stock (in DMSO) was added to 190 μL 1-propanol to make a reference stock plate. 5 μL from this reference stock plate were mixed with 70 μL 1-propanol and 75 μL citrate phosphate-buffered saline (PBS;isotonic) to make the reference plate, and the UV spectrum (250-500 nm) of the reference plate was read. 6 μL of 10 mM test compound stock was added to 594 μL buffer in a 96-well storage plate and mixed. The storage plate was sealed and incubated at RT for 18 h. The suspension was then filtered through a 96-well filter plate (pION Inc., Woburn, MA). 75 μL of filtrate was mixed with 75 μL 1-propanol to make the sample plate, and the UV spectrum of the sample plate was read. Calculations were carried out with μSOL Evolution software based on the area under the curve (AUC) of the UV spectrum of the sample and reference plates. All compounds were tested in triplicate.

The mark [6] stands for this setting: cereblon binding, class symbols, read-out: CRBN FP IC50.
The mark [7] stands for this setting: fluorescence polarization, Cy5-O-Len probe, read-out: CRBN IC50.
The mark [8] stands for this setting: HEK293 hGSPT1 HiBiT cells, 4 hrs incubation; read-out: GSPT1 HiBit EC50.

Sequence of 6×His-CRBN-DDB1 protein (Q96SW2 whole entry): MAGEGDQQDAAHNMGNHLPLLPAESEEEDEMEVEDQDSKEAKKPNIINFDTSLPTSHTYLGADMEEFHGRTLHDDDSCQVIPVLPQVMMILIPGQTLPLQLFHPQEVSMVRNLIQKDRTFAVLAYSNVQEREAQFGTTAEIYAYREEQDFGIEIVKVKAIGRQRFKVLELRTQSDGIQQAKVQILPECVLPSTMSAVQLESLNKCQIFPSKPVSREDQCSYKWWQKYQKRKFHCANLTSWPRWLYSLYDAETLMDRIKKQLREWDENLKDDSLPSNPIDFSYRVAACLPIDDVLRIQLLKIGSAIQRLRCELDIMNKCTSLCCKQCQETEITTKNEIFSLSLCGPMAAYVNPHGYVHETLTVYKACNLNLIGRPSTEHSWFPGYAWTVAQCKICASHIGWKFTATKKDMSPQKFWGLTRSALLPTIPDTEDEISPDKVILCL
Sequence of 6×His-CRBN-DDB1 protein (Q16531 whole entry partner): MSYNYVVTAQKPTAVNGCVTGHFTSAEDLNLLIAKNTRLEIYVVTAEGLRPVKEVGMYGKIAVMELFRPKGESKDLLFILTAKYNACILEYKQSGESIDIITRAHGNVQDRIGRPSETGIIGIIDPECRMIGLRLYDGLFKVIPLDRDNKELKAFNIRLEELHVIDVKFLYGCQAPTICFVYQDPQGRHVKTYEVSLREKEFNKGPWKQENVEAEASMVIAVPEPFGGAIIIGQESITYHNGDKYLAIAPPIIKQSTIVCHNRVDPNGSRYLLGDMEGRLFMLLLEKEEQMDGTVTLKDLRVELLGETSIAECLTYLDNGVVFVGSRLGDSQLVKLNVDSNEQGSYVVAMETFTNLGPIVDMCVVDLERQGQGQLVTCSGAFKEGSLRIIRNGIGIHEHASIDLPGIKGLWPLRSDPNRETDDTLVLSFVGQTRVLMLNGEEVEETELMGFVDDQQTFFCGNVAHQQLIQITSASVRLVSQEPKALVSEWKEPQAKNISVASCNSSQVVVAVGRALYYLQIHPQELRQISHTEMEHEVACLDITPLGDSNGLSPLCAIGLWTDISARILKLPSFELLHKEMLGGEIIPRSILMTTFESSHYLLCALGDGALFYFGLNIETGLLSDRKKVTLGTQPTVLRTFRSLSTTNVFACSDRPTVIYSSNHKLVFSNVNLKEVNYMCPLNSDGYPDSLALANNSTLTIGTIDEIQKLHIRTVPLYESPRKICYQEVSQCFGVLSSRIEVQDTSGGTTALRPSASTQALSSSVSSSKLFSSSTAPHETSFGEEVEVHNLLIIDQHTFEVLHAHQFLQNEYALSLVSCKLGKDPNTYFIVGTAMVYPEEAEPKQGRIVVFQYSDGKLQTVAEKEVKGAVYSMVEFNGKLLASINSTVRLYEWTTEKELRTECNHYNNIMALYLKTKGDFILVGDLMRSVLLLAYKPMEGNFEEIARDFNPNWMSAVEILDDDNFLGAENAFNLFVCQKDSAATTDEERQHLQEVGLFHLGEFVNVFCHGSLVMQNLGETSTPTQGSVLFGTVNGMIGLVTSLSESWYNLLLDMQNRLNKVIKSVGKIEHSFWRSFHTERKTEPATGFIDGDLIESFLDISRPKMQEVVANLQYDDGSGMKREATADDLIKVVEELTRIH
Sequence of GSPT1 HiBiT tag protein (P15170 whole entry): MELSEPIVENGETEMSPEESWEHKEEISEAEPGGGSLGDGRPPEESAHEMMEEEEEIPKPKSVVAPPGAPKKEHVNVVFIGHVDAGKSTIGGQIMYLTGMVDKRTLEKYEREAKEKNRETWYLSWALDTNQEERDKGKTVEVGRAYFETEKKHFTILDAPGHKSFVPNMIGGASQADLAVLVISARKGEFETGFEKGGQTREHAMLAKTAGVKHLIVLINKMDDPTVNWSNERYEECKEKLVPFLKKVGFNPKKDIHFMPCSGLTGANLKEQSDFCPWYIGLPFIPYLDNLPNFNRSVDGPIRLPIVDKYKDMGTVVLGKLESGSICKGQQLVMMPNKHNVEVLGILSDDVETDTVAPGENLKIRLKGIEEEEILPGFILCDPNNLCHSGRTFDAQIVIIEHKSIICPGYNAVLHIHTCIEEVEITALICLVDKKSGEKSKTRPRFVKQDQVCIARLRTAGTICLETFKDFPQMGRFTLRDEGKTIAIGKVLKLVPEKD
Sequence of GSPT1 HiBiT tag protein (Q96SW2 whole entry): as the sequence (Q96SW2 whole entry) above
Sequence of GSPT1 HiBiT tag protein (Q16531 whole entry partner): as the sequence (Q16531 whole entry partner) above

In general, IC50 refers to the concentration at which inhibition is half-maximal. For orientation: Papp means the rate of passage across a membrane or cell layer, normalised by area and donor concentration. Low values mean slow passage, high ones fast passage. For `Cc1ccc(S(=O)(=O)Nc2ccc3c(c2)C(=O)N(C2CCC(=O)NC2=O)C3=O)cc1Cl` (centres unmarked) [Compound 7, 3-chloro-N-(2-(2,6-dioxopiperidin-3-yl)-1,3-dioxoisoindolin-5-yl)-4-methylbenzenesulfonamide], the IC50 in data set [1] (setting [6]) was less than 1 µM; in data set [1] (setting [7]), 0.013 µM. In data set [2], this molecule had a Papp of 4.6 ×10⁻⁶ cm/s. The DC50 in data set [3] (setting [8]) is more than 10 µM.
Regarding `O=C1CCC(N2C(=O)c3ccc(NS(=O)(=O)c4ccc(Cl)cc4)cc3C2=O)C(=O)N1` (centres unmarked) [Compound 16, 4-chloro-N-(2-(2,6-dioxopiperidin-3-yl)-1,3-dioxoisoindolin-5-yl)benzenesulfonamide], in data set [1] (setting [6]), the IC50 was less than 1 µM. Further, the DC50 in data set [3] (setting [8]) was more than 10 µM.
In the same order, the values of `Cc1ccc(S(=O)(=O)Nc2ccc3c(c2)C(=O)N(C2CCC(=O)NC2=O)C3=O)cc1` (centres unmarked) [Compound 21, N-(2-(2,6-dioxopiperidin-3-yl)-1,3-dioxoisoindolin-5-yl)-4-methylbenzenesulfonamide] are 1 to 10 µM and more than 10 µM.
In the same order, the values of `O=C1CCC(N2C(=O)c3ccc(NS(=O)(=O)c4cccc(F)c4)cc3C2=O)C(=O)N1` (centres unmarked) [Compound 72, N-(2-(2,6-dioxopiperidin-3-yl)-1,3-dioxoisoindolin-5-yl)-3-fluorobenzenesulfonamide] are less than 1 µM and more than 10 µM.
In the same order, the values of `O=C1CCC(N2C(=O)c3ccc(NS(=O)(=O)Cc4ccc(F)cc4)cc3C2=O)C(=O)N1` (centres unmarked) [Compound 89, N-(2-(2,6-dioxopiperidin-3-yl)-1,3-dioxoisoindolin-5-yl)-1-(4-fluorophenyl)methanesulfonamide] are less than 1 µM and more than 10 µM.
Regarding `O=C1CCC(N2C(=O)c3ccc(NS(=O)(=O)c4cc5ccccc5s4)cc3C2=O)C(=O)N1` (centres unmarked) [Compound 87, N-(2-(2,6-dioxopiperidin-3-yl)-1,3-dioxoisoindolin-5-yl)benzo[b]thiophene-2-sulfonamide], in data set [1] (setting [6]), the IC50 is less than 1 µM. The DC50 in data set [3] (setting [8]) was more than 10 µM.
In the same order, the values of `O=C1CCC(N2C(=O)c3ccc(NS(=O)(=O)c4ccccc4Br)cc3C2=O)C(=O)N1` (centres unmarked) [Compound 98, 2-bromo-N-(2-(2,6-dioxopiperidin-3-yl)-1,3-dioxoisoindolin-5-yl)benzenesulfonamide] are less than 1 µM and less than 1 µM.
In the same order, the values of `O=C1CCC(N2C(=O)c3ccc(NS(=O)(=O)Cc4ccccc4)cc3C2=O)C(=O)N1` (centres unmarked) [Compound 9, N-(2-(2,6-dioxopiperidin-3-yl)-1,3-dioxoisoindolin-5-yl)-1-phenylmethanesulfonamide] are 1 to 10 µM and more than 10 µM.
With `O=C1CCC(N2C(=O)c3ccc(NS(=O)(=O)c4cccc(Cl)c4)cc3C2=O)C(=O)N1` (centres unmarked) [Compound 95, 3-chloro-N-(2-(2,6-dioxopiperidin-3-yl)-1,3-dioxoisoindolin-5-yl)benzenesulfonamide], the IC50 in data set [1] (setting [6]) is less than 1 µM. The DC50 in data set [3] (setting [8]) is more than 10 µM.
In the same order, the values of `Cc1cc(S(=O)(=O)Nc2ccc3c(c2)C(=O)N(C2CCC(=O)NC2=O)C3=O)c(C)cc1Cl` (centres unmarked) [Compound 77, 4-chloro-N-(2-(2,6-dioxopiperidin-3-yl)-1,3-dioxoisoindolin-5-yl)-2,5-dimethylbenzenesulfonamide] are less than 1 µM and less than 1 µM.
In the same order, the values of `O=C1CCC(N2C(=O)c3ccc(NS(=O)(=O)c4ccc(F)c(F)c4)cc3C2=O)C(=O)N1` (centres unmarked) [Compound 76] are 1 to 10 µM and more than 10 µM.
In the same order, the values of `O=C1CCC(N2C(=O)c3ccc(NS(=O)(=O)c4ccc(O)cc4)cc3C2=O)C(=O)N1` (centres unmarked) [Compound 92, N-(2-(2,6-dioxopiperidin-3-yl)-1,3-dioxoisoindolin-5-yl)-4-hydroxybenzenesulfonamide] are 1 to 10 µM and more than 10 µM.
For `COc1ccccc1S(=O)(=O)Nc1ccc2c(c1)C(=O)N(C1CCC(=O)NC1=O)C2=O` (centres unmarked) [Compound 100, N-(2-(2,6-dioxopiperidin-3-yl)-1,3-dioxoisoindolin-5-yl)-2-methoxybenzenesulfonamide], the IC50 in data set [1] (setting [6]) was less than 1 µM. In data set [3] (setting [8]), the DC50 was more than 10 µM.
In the same order, the values of `O=C1CCC(N2C(=O)c3ccc(NS(=O)(=O)c4ccc5ccccc5c4)cc3C2=O)C(=O)N1` (centres unmarked) [Compound 63, N-(2-(2,6-dioxopiperidin-3-yl)-1,3-dioxoisoindolin-5-yl)naphthalene-2-sulfonamide] are less than 1 µM and more than 10 µM.
With `O=C1CCC(N2C(=O)c3ccc(NS(=O)(=O)c4ccccc4)cc3C2=O)C(=O)N1` (centres unmarked) [Compound 20, N-(2-(2,6-dioxopiperidin-3-yl)-1,3-dioxoisoindolin-5-yl)benzenesulfonamide], the IC50 in data set [1] (CRBN FP IC50, cereblon binding, class symbols) was less than 1 µM; in data set [1] (setting [7]), 0.072 µM. Besides, the “MV4-11 EC50” value in data set [4] was “inactive”. The molecule further yielded a Sol. in data set [5] of 71 µM. Moreover, the Papp in data set [2] stood at 3.6 ×10⁻⁶ cm/s. Moreover, the DC50 in data set [3] (read-out: GSPT1 HiBit EC50; HEK293 hGSPT1 HiBiT cells, 4 hrs incubation) was more than 10 µM.
In the case of `Cc1ccccc1S(=O)(=O)Nc1ccc2c(c1)C(=O)N(C1CCC(=O)NC1=O)C2=O` (centres unmarked) [Compound 15, N-(2-(2,6-dioxopiperidin-3-yl)-1,3-dioxoisoindolin-5-yl)-2-methylbenzenesulfonamide], the IC50 in data set [1] (setting [6]) is less than 1 µM. Further, the DC50 in data set [3] (setting [8]) fell in the range of 1 to 10 µM.
In the same order, the values of `O=C1CCC(N2C(=O)c3ccc(NS(=O)(=O)c4ccc(Cl)c(Cl)c4)cc3C2=O)C(=O)N1` (centres unmarked) [Compound 71, 3,4-dichloro-N-(2-(2,6-dioxopiperidin-3-yl)-1,3-dioxoisoindolin-5-yl)benzenesulfonamide] are less than 1 µM and more than 10 µM.
On to `Cc1ccc(F)cc1S(=O)(=O)Nc1ccc2c(c1)C(=O)N(C1CCC(=O)NC1=O)C2=O` (centres unmarked) [Compound 75, N-(2-(2,6-dioxopiperidin-3-yl)-1,3-dioxoisoindolin-5-yl)-5-fluoro-2-methylbenzenesulfonamide], for which the IC50 in data set [1] (setting [6]) is less than 1 µM. Moreover, the DC50 in data set [3] (setting [8]) is more than 10 µM.
In the same order, the values of `COc1ccc(Br)cc1S(=O)(=O)Nc1ccc2c(c1)C(=O)N(C1CCC(=O)NC1=O)C2=O` (centres unmarked) [Compound 78, 5-bromo-N-(2-(2,6-dioxopiperidin-3-yl)-1,3-dioxoisoindolin-5-yl)-2-methoxybenzenesulfonamide] are 1 to 10 µM and more than 10 µM.
